Read-outs that look alike come from different tables or passages of the source.

The test system of one test is CT26 tumors. Nature of the test: Growth inhibition of s.c. footpad CT26 tumors in CB6F1 mice by daily i.p. adenine nucleotides (Table 1). It counts as in vivo, mouse. To be noted: for inhibition at 25000 µM: Mus musculus, CT26, 360 h, 1 ml of 25 mM, based on tumor weights. Here is the method:
The tumor cell lines employed were CT26, a mouse undifferentiated, aggressive colon carcinoma, and CAPAN-1, a well-differentiated human pancreatic adenocarcinoma. […] The cells are shown to be free of Mycoplasma contamination. Cells are cultured at 37° C. in a humidified atmosphere of 5% CO2 /95% air in MEM supplemented with antibiotics (100 units of penicillin per ml and 100 μg streptomycin per ml), L-glutamine (2 mM), non-essential amino acids (0.1 mM), sodium pyruvate (1 mM), and 10% fetal bovine serum.
In the tests, females and males CB6F1 mice (a standard F1 hybrid of BALB/C and C57BL/6) obtained from Jackson Laboratories, Bar Harbor, Maine and athymic outbred NCr nu/nu mice (males and females) from the Department of Radiation Medicine, Massachusetts General Hospital, Boston, Mass. 02114 are used. All the mice are kept for at least two weeks before inoculation of the tumors and the start of treatment and are 7-9 weeks old (CB6F1) or 6-7 weeks old (athymic nu/nu) at the start of the procedure. Animals weigh 20-25 g (females) or 23-28 g (males), are housed 5-12 per cage, and have ad libitum access to food and water.
Tumor cells are removed from subconfluent cultures by a mild trypsin-EDTA treatment, the cell pellet is washed once with MEM without serum and the cells are suspended at the desired cell numbers in PBS (phosphate-bufferedsaline, 8 g NaCl, 0.2 g KCl, 1.15 g Na2 HPO4.7H2 O, and 0.2 g KH2 PO4 per liter). Cell suspensions are shown to be at least 90% viable by trypan blue exclusion. Mice are injected subcutaneously in the right hind footpad with tumor cells suspended in 50 μl of PBS. The regular protocol (unless otherwise stated) consists of daily i.p. injections of 1 ml of 0.85% NaCl solution or 1 ml of 50 mM of AMP, ADP, or ATP in 0.85% NaCl (from stock solutions adjusted to pH 6.2) starting one day after tumor inoculation and given for ten consecutive days.
Injections are administered with 30 gauge needles and the mice are lightly anesthetized with ether. The mice are weighed before the start of treatment and once a week during and after treatment. After the tumors become palpable, tumor sizes are determined every three days. The animals are sacrificed, tumors are excised and weighed before they reach 10% of the animals' weight.
The growth inhibitory properties of adenine nucleotides against CT26 murine colon carcinoma, which are inoculated s.c. in the hind footpad of CB6F1 mice, are illustrated in Table 1 hereinbelow. […] No significant differences between males and females are observed either in the rate of tumor growth or in the tumor's response to adenine nucleotides treatment.

For test [1], the system named is CT26 colon adenocarcinoma. Nature of the test: Growth inhibition of footpad CT26 colon adenocarcinoma in CB6F1 mice, second series (FIGS. 2 and 3). It is filed as in vivo, mouse. To be noted: for Anticancer activities against established footpad CT26 colon adenocarcinoma: CB6F1 mice, in words; for Inhibition of growth of palpable CT26 tumors (in words): daily i.p. in 2.2 ml saline, pH 6.2, 12 days, starting after tumors palpable, equimolar amounts. Here is the method: A further series of tests are conducted whereby tumors are inoculated by injections of 2.5×10^5 CT26 cells (over 90% viability) in 50 μl of phosphate-buffered saline into the right hind footpad of CB6F1 mice. The treatments were initiated at a variety of times after inoculation of the tumors. The injection schedules started either 1 or 5 days after tumor inoculation when none of the tumors are palpable or when the tumors are clearly palpable (average calculated weight of 100 mg), which occur in 100% of the inoculated mice after 8-11 days. Mice are randomized, divided into groups, and injected daily with 2.2 ml of saline, adenosine, AMP, or ATP (compounds are in sterile saline solutions at concentrations of 25 mM with AMP and ATP solutions adjusted to pH 6.2). Injections are administered intraperitoneally with 30 gauge needles and the mice are lightly anesthetized with […]. The mice are weighed and tumor sizes measured before the start of the treatment schedule and every three days during and after the treatment schedule. These determinations are performed before injections during the treatment period.
In particular, see FIG. 2. FIG. 2 illustrates inhibition of tumor growth (---) and host weight loss (-) in tumor-bearing mice by treatment with adenine nucleotides. Mice (CB6F1, 8 week old males) bearing palpable CT26 footpad tumors (on day 9 after tumor inoculation) are treated with saline (.smallcircle.), adenosine (o), AMP (Δ), or ATP (.quadrature.) as described herein. An untreated group is also included (x). Arrows indicate days of injection.
The magnitude of the antitumor activities of AMP and ATP depends to a small extent on the pH of the solution administered intraperitoneally. This property is probably related to the number of negative charges on the phosphate groups (the pKa of the secondary phosphate is around 6.6). AMP and especially ATP have some buffering capacity, and at a pH below 6.6 they carry a smaller net charge than at a physiological pH. The lower charge of these molecules enhances the initial (first hour) transport of AMP and ATP across the peritoneal membrane and into the systemic circulation (see Torres, et al., 1978, Pharmacol., 17, 330-340). […] The treatment schedule of palpable CT26 tumors which is illustrated in FIG. 2 consistently yields 10-20% of "cures". These mice remain tumor-free for at least two months.
FIG. 3 further illustrates inhibition of host weight loss in tumor-bearing animals by treatment with adenine nucleotides. Mice (CB6F1, males, 7 weeks old, in A, 10 weeks old in B, […]) with saline (.smallcircle.), adenosine (o), AMP (Δ), or ATP (.quadrature.) are initiated 1 day (A), 5 days (B), or 9 days after tumor inoculation (when all the tumors were palpable) (C). Arrows indicate days of injection. Experimental procedures were outlined in the text.

Where [2] appears, read: experiment 6, 10 F per group, 0.5 × 10^5 cells, day 18, 1 ml of 50 mM i.p. daily (Ap4A 10 mM).
Setting [3] is: experiment 1, 10 F per group, 0.5 × 10^6 cells, day 15, 1 ml of 25 mM i.p. daily.
The mark [4] stands for this setting: experiment 2, 10 M per group, 0.5 × 10^6 cells, day 15, 1 ml of 25 mM i.p. daily.

For the compound `Nc1ncnc2c1ncn2[C@@H]1O[C@H](COP(=O)(O)OP(=O)(O)OP(=O)(O)OP(=O)(O)OC[C@H]2O[C@@H](n3cnc4c(N)ncnc43)[C@H](O)[C@@H]2O)[C@@H](O)[C@H]1O` [AP4 A, reference compound], in the test on CT26 tumors (setting [2]), the Tumor diameter was 0.9 ± 0.3 cm and the Tumor weight was determined as 0.74 ± 0.21 g.
Turning to `Nc1ncnc2c1ncn2[C@@H]1O[C@H](COP(=O)(O)OP(=O)(O)OP(=O)(O)O)[C@@H](O)[C@H]1O` [ATP-MgCl2], the inhibition at 25000 µM in the test on CT26 tumors (read-out: Inhibition of tumor growth (% of saline-treated), experiment 1, 10 F per group, 0.5 × 10^6 cells, day 15) was 18%; in the test on CT26 tumors (read-out: Inhibition of tumor growth (% of saline-treated), experiment 2, 10 M per group, 0.5 × 10^6 cells, day 15) it was 26%. Besides, the Tumor diameter with CT26 tumors (setting [3]) was determined as 1.4 ± 0.2 cm; in the test on CT26 tumors (setting [4]), 1.4 ± 0.3 cm. Besides, the Tumor weight with CT26 tumors (setting [3]) was found to be 1.59 ± 0.24 g; in the test with CT26 tumors (setting [4]), 1.38 ± 0.40 g.
Regarding `O=P(O)(O)O` [inorganic phosphate, reference compound], in test [1], the “Anticancer activities against established footpad CT26 colon adenocarcinoma” value was “without such effects” and the “Inhibition of growth of palpable CT26 tumors (in words)” value is recorded as “without any effects on the growth of CT26 tumors”.
For `O=P(O)(O)OP(=O)(O)O` [inorganic pyrophosphate, reference compound], in test [1], the “Anticancer activities against established footpad CT26 colon adenocarcinoma” value is “without such effects” and the “Inhibition of growth of palpable CT26 tumors (in words)” value is recorded as “without any effects on the growth of CT26 tumors”.

A word on the inhibition: it is the relative decrease from the control value, in per cent.

Values taken from patent publication US5049372A, “Anticancer activities in a host by increasing blood and plasma adenosine 5'-triphosphate (ATP) levels” (priority 1988, dated 1991).
